Assay results from publication PMC8951032, “Study of Biological Activities and ADMET-Related Properties of Novel Chlorinated N-arylcinnamamides” (International Journal of Molecular Sciences, 2022).
Values after ≈ are worked out from the molar mass of the structure shown. Read-outs that look alike come from different tables or passages of the source.

What was measured:
[1] = tested on: Staphylococcus aureus ATCC 29213; experiment: In vitro antistaphylococcal activity, microtitration broth MIC; assay type: cell-based; settings: Staphylococcus aureus
[2] = tested on: methicillin-resistant S. aureus SA 630; experiment: as above; assay type: cell-based; settings: Staphylococcus aureus
[3] = tested on: vancomycin-resistant E. faecalis (VRE) 725B; experiment: In vitro antienterococcal activity, microtitration broth MIC; assay type: cell-based, Enterococcus faecalis; settings: 24 h
[4] = tested on: methicillin-resistant S. aureus SA 3202; experiment: In vitro antistaphylococcal activity, microtitration broth MIC; assay type: cell-based; settings: Staphylococcus aureus
[5] = tested on: methicillin-resistant S. aureus (MRSA) 63718; experiment: as above; assay type: cell-based; settings: Staphylococcus aureus
[6] = Lipophilicity determination by RP-HPLC (log k, log D); assay type: physicochemical; settings: for log k: MeOH 72%/H2O 28%; for log D6.5: MeOH 72%/acetate buffered saline pH 6.5; for log D7.4: MeOH 72%/acetate buffered saline pH 7.4
Procedure: In addition to the mentioned ADME profile, it is responsible for interactions with biological targets. Lipophilicity is recognized as one of the most important parameters influencing ADME and bioactivity and is also part, e.g., of Lipinski’s Rule of Five (Ro5). This thermodynamic parameter describing the molecule’s affinity for an aqueous or relatively lipophilic environment can be characterized by the logarithm of the partition coefficient (log P). In this study, lipophilicity was measured by reversed-phase high-performance liquid chromatography (RP-HPLC) under isocratic conditions with methanol as the organic modifier in the aqueous mobile phase and the logarithm of the capacity factor k was calculated, which is used as the lipophilicity index converted to the log P scale. In addition to the log k values, the logarithm of the distribution coefficient DpH at pH 6.5 and 7.4 was determined to clarify the behavior of the compounds under physiological conditions and possible ionization. Instead of water, a buffer of suitable pH was used as part of the mobile phase. In addition to the above-mentioned experimental methods, commercially available ChemBioDraw Ultra 13.0 and ACD/Percepta ver. 2012 programs were used to calculate the lipophilicity values of all prepared compounds.
A HPLC separation module Waters Alliance 2695 XE equipped with a Waters Dual Absorbance Detector 2486 (Waters Corp., Milford, MA, USA) was used. A chromatographic column Symmetry® C18 5 μm, 4.6 × 250 mm, Part No. W21751W016 (Waters Corp., Milford, MA, USA) was used. The HPLC separation process was monitored by Empower® 3 Chromatography Manager Software (Waters Corp.). Isocratic elution by a mixture of MeOH p.a. (72%) and H2O-HPLC Mili-Q grade (28%) as a mobile phase was used for the determination of capacity factor k. Isocratic elution by a mixture of MeOH p.a. (72%) and acetate buffered saline (pH 7.4 and pH 6.5) (28%) as a mobile phase was used for the determination of distribution coefficient expressed as D7.4 and D6.5. The total flow of the column was 1.0 mL/min, injection 20 μL, column temperature 40 °C, and sample temperature 10 °C. The detection wavelength of 210 nm was chosen. A KI methanolic solution was used for the determination of the dead times (tD). Retention times (tR) were measured in minutes. The capacity factors k were calculated according to the formula k = (tR − tD)/tD, where tR is the retention time of the solute, and tD is the dead time obtained using an unretained analyte. The distribution coefficients DpH were calculated according to the formula DpH = (tR − tD)/tD. Each experiment was repeated three times.

[7] = tested on: S. aureus, MRSA, E. faecalis, VRE, M. smegmatis, M. marinum; experiment: In vitro antimicrobial screening, all tested strains; assay type: cell-based; settings: antibacterial/antimycobacterial screening

| MIC ([1]; ATCC29213, 24 h, S. aureus ATCC 29213, read-out: log(1/MIC [M]) SA (converted)) [M] | MIC ([1]; ATCC29213, S. aureus ATCC 29213, 24 h, read-out: MIC SA) [M] | MIC ([2]; 24 h, MRSA SA 630, read-out: log(1/MIC [M]) MRSA2 (converted)) [M] | MIC ([2]; MRSA SA 630, 24 h, read-out: MIC MRSA2) [M] | MIC ([3]; read-out: MIC VRE3) [M] | MIC ([3]; read-out: log(1/MIC [M]) VRE3 (converted)) [M] | MIC ([4]; 24 h, MRSA SA 3202, read-out: log(1/MIC [M]) MRSA3 (converted)) [M] | MIC ([4]; MRSA SA 3202, 24 h, read-out: MIC MRSA3) [M] | MIC ([5]; 24 h, MRSA 63718, read-out: log(1/MIC [M]) MRSA1 (converted)) [M] | MIC ([5]; MRSA 63718, 24 h, read-out: MIC MRSA1) [M] | log k [6] | log D6.5 [6] | log D7.4 [6] | Compound | antimicrobial activity (in words) [7] |
| --- | --- | --- | --- | --- | --- | --- | --- | --- | --- | --- | --- | --- | --- | --- |
| 5.75e-06 (≈ 2.01 µg/mL) | 5.72e-06 (≈ 2 µg/mL) | > 4.57e-05 | > 4.58e-05 | 5.72e-06 (≈ 2 µg/mL) | 5.75e-06 (≈ 2.01 µg/mL) | > 4.57e-05 | > 4.58e-05 | 4.57e-05 (≈ 16 µg/mL) | 4.58e-05 (≈ 16 µg/mL) |  |  |  | CC1(C)S[C@@H]2[C@H](NC(=O)[C@H](N)c3ccccc3)C(=O)N2[C@H]1C(=O)O [AMP, ampicillin, reference compound] |  |
|  |  |  |  |  |  |  |  |  |  | 1.2065 | 1.2373 | 1.2178 | O=C(/C=C/c1ccc(Cl)c(Cl)c1)Nc1ccc(OC(F)(F)F)cc1Br [2r, (2E)-N-[2-Bromo-4-(trifluoromethoxy)phenyl]-3-(3,4-dichlorophenyl)prop-2-enamide] | total loss of any effect |
|  |  |  |  |  |  |  |  |  |  | 1.0278 | 1.0236 | 1.0284 | O=C(/C=C/c1ccc(Cl)cc1)Nc1ccc(OC(F)(F)F)cc1Br [1r, (2E)-N-[2-Bromo-4-(trifluoromethoxy)phenyl]-3-(4-chlorophenyl)prop-2-enamide] | total loss of any effect |
